Source: US7728129B2, “Processes for the preparation of piperazinyl and diazapanyl benzamide derivatives” (Janssen Pharmaceutica NV, priority 2005, dated 2010)
Where a name gives a salt, the structure may show the parent alone.

Experiment: Hygroscopicity / humidity stability of salts by Dynamic Vapour Sorption (DVS)
Assay type: physicochemical
Conditions: solid salt

Which “hygroscopicity by DVS” value does the source give for `CC(C)N1CCN(C(=O)c2ccc(CN3CCOCC3)cc2)CC1.O=C(O)/C=C\C(=O)O` [(4-Isopropyl-piperazin-1-yl)-(4-morpholin-4-ylmethyl-phenyl)-methanone Bis-maleate Salt] here?
The value was “hygroscopic”.

With `CC(C)N1CCN(C(=O)c2ccc(CN3CCOCC3)cc2)CC1.O=C(O)/C=C/C(=O)O` [(4-Isopropyl-piperazin-1-yl)-(4-morpholin-4-ylmethyl-phenyl)-methanone Mono-fumarate Salt] as the compound, how does the “relative humidity up to which the salt is stable, by DVS” value read?
Its value is “up to 70%”.

For `CC(C)N1CCN(C(=O)c2ccc(CN3CCOCC3)cc2)CC1` [(4-Isopropyl-piperazin-1-yl)-(4-morpholin-4-ylmethyl-phenyl)-methanone Mono-succinate Salt], which “hygroscopicity by DVS” value (Mono-succinate Salt) is on record?
The value was “non-hygroscopic”.

With `CC(C)N1CCN(C(=O)c2ccc(CN3CCOCC3)cc2)CC1` [(4-Isopropyl-piperazin-1-yl)-(4-morpholin-4-ylmethyl-phenyl)-methanone, dihydrobromide semi-hydrate salt] as the compound, how does the “relative humidity above which the salt is hygroscopic, by DVS” value read?
The value was “above 10 % RH”.

Which “hygroscopicity by DVS” value does the source give for `CC(C)N1CCN(C(=O)c2ccc(CN3CCOCC3)cc2)CC1` [(4-Isopropyl-piperazin-1-yl)-(4-morpholin-4-ylmethyl-phenyl)-methanone, dihydrochloride monohydrate salt] here?
The value was “hygroscopic”.
